Measurements reported in patent US5710274A, “N-aminoalkyldibenzofurancarboxamides; new dopamine receptor subtype specific ligands” (Neurogen Corporation, priority 1996, dated 1998).
Structures can show the parent of a compound that is named as a salt.

How the values were obtained:
[1] = target: T1, D3 receptors (Chlorocebus aethiops, UniProt P52703); test: D3 receptor binding, displacement of 3H-YM 09151-2; parameters: species or system African Green monkey; conditions: recombinant receptors in COS cell pellets; 0.5 nM 3H-YM 09151-2; 48° C; pH 7.4
T1 construct: expressed in transfected cells; host or cells: COS cells
Description: (§1) Pellets of COS cells containing recombinantly produced D2 or D3 receptors from African Green monkey were used for the assays. The sample is homogenized in 100 volumes (w/vol) of 0.05M Tris HCl buffer at 4° C. and pH 7.4. The sample is then centrifuged at 30,000×g and resuspended and rehomogenized. The sample is then centrifuged as described and the final tissue sample is frozen until use. The tissue is resuspended 1:20 (wt/vol) in 0.05M Tris HCl buffer containing 100 mM NaCl.
(§2) Incubations are carried out at 48° C. and contain 0.4 ml of tissue sample, 0.5 nM ^3 H-YM 09151-2 and the compound of interest in a total incubation of 1.0 ml. Nonspecific binding is defined as that binding found in the presence of […] spiperone; without further additions, nonspecific binding is less than 20% of total binding. The binding characteristics of representative compounds of the invention for D2 and D3 receptor subtypes are shown in Table 2 for rat striatal homogenates.

[2] = target: T2, D2 receptors (Chlorocebus aethiops, UniProt P52702); test: D2 receptor binding, displacement of 3H-YM 09151-2; parameters: species or system African Green monkey; conditions: recombinant receptors in COS cell pellets; 0.5 nM 3H-YM 09151-2; 48° C; pH 7.4
T2 construct: expressed in transfected cells; host or cells: COS cells
Description: as §1, §2

T2 sequence (P52702 whole entry): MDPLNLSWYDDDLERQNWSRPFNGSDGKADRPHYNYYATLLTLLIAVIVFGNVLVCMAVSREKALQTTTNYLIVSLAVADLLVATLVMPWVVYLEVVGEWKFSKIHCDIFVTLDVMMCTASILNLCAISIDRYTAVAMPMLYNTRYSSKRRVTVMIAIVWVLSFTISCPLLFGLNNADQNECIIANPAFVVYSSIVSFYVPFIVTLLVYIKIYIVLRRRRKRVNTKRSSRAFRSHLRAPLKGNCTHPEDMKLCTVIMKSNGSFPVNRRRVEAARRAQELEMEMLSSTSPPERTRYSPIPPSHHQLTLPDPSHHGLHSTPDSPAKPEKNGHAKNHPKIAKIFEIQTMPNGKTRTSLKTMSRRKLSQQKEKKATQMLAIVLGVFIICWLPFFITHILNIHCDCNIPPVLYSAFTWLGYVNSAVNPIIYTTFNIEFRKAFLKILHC
T1 sequence (P52703 whole entry): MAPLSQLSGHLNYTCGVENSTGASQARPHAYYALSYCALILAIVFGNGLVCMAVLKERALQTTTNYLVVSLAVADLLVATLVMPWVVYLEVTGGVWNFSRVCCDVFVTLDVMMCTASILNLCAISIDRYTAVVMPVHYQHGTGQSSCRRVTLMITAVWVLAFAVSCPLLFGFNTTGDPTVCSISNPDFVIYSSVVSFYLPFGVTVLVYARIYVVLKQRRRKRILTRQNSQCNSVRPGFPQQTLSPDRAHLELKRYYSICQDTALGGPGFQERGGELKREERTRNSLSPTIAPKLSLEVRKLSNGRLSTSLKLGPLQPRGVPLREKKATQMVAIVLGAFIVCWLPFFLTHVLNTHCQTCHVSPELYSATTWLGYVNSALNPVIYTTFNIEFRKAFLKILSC

| SMILES | Ki [1] | Ki [2] |
| --- | --- | --- |
| O=C(NCCCCN1CCN(c2cccc3ccccc23)CC1)c1ccc2oc3ccccc3c2c1 [Compound 2, N-(1-{4-[4-(1-Naphthyl)piperazin-1-yl]}butyl)-2-dibenzofurancarboxamide hydrochloride] | 1.3 nM | 201 nM |
| O=C(NCCCCN1CCN(c2cccc(Cl)c2Cl)CC1)c1ccc2oc3ccccc3c2c1 [Compound 1, N-(1-{4-[4-(2,3-Dichlorophenyl)piperazin-1-yl]}butyl)-2-dibenzofurancarboxamide hydrochloride] | 1 nM | 157 nM |
